# In the supplement of paper PMC4862054:
# Tests used:
# Details in all cases: incubation time: 72 h
# HCC1599 [1] = experiment: normalised viability (% of control), CellTiter-Blue; higher = more viable cells (100 = DMSO, 0 = benzethonium chloride kill control)
# Procedure: (§1)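 DSRT, CellTiter-Blue viability, 72 h incubation. Signal is normalised to DMSO and benzethonium chloride controls. Value is the normalised response at dose 1.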
# SK-BR-3 [2] = experiment: as above
# Procedure: as §1
# MDA-MB-453 [3] = experiment: as above
# Procedure: as §1
# BT-474 [4] = experiment: as above
# Procedure: as §1
# CAL-51 [5] = experiment: as above
# Procedure: as §1
# Hs578T [6] = experiment: as above
# Procedure: as §1
# CAL-120 [7] = experiment: as above
# Procedure: as §1
# HCC1937 [8] = experiment: as above
# Procedure: as §1
# MDA-MB-436 [9] = experiment: as above
# Procedure: as §1
# CAL-85-1 [10] = experiment: as above
# Procedure: as §1
# MFM-223 [11] = experiment: as above
# Procedure: as §1
# CAL-148 [12] = experiment: as above
# Procedure: as §1
# MDA-MB-231 [13] = experiment: as above
# Procedure: as §1
# DU-4475 [14] = experiment: as above
# Procedure: as §1
# HCC1143 [15] = experiment: as above
# Procedure: as §1
# MDA-MB-468 [16] = experiment: as above
# Procedure: as §1
# HDQ-P1 [17] = experiment: as above
# Procedure: as §1
# BT-549 [18] = experiment: as above
# Procedure: as §1
# HCC1599 [19] = experiment: normalised response (% of control), CellTiter-Glo; higher = more viable cells (100 = DMSO, 0 = benzethonium chloride kill control)
# Outline: (§2)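 Plates were normalised with 0.1 % DMSO as 100 and a positive kill control as 0. Breast cancer cell lines in 20 µl suspension had been seeded into 384-well plates with compound at 5 concentrations in 10-fold steps over a compound-specific 10,000-fold range, incubated 72 h, and read for CellTox Green fluorescence (485/520 nm) followed by CellTiter-Glo luminescence. Each value is the normalised signal at a single concentration.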
# SK-BR-3 [20] = experiment: as above
# Outline: as §2
# MDA-MB-453 [21] = experiment: as above
# Outline: as §2
# BT-474 [22] = experiment: as above
# Outline: as §2
# CAL-51 [23] = experiment: as above
# Outline: as §2
# Hs578T [24] = experiment: as above
# Outline: as §2
# MCF-10A = experiment: as above
# Outline: as §2
# CAL-120 [25] = experiment: as above
# Outline: as §2
# HCC1937 [26] = experiment: as above
# Outline: as §2
# MDA-MB-436 [27] = experiment: as above
# Outline: as §2
# CAL-85-1 [28] = experiment: as above
# Outline: as §2
# MFM-223 [29] = experiment: as above
# Outline: as §2
# CAL-148 [30] = experiment: as above
# Outline: as §2
# MDA-MB-231 [31] = experiment: as above
# Outline: as §2
# DU-4475 [32] = experiment: as above
# Outline: as §2
# HCC1143 [33] = experiment: as above
# Outline: as §2
# MDA-MB-468 [34] = experiment: as above
# Outline: as §2
# HDQ-P1 [35] = experiment: as above
# Outline: as §2
# BT-549 [36] = experiment: as above
# Outline: as §2
# MDA-MB-453 [37] = experiment: normalised viability (% of control), CellTiter-Blue; higher = more viable cells (about 100 = DMSO control)
# Procedure: (§3)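 DSRT, CellTiter-Blue viability, 72 h incubation. Signal is normalised to DMSO and benzethonium chloride controls. Value is the normalised response at dose 9.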
# CAL-51 [38] = experiment: as above
# Procedure: as §3
# CAL-85-1 [39] = experiment: as above
# Procedure: as §3
# CAL-148 [40] = experiment: as above
# Procedure: as §3
# DU-4475 [41] = experiment: as above
# Procedure: as §3
# HDQ-P1 [42] = experiment: as above
# Procedure: as §3
SMILES,normalised viability (HCC1599 [1]) [%],normalised viability (SK-BR-3 [2]) [%],normalised viability (MDA-MB-453 [3]) [%],normalised viability (BT-474 [4]) [%],normalised viability (CAL-51 [5]) [%],normalised viability (Hs578T [6]) [%],normalised viability (CAL-120 [7]) [%],normalised viability (HCC1937 [8]) [%],normalised viability (MDA-MB-436 [9]) [%],normalised viability (CAL-85-1 [10]) [%],normalised viability (MFM-223 [11]) [%],normalised viability (CAL-148 [12]) [%],normalised viability (MDA-MB-231 [13]) [%],normalised viability (DU-4475 [14]) [%],normalised viability (HCC1143 [15]) [%],normalised viability (MDA-MB-468 [16]) [%],normalised viability (HDQ-P1 [17]) [%],normalised viability (BT-549 [18]) [%],normalised response (HCC1599 [19]) [%],normalised response (MDA-MB-453 [21]) [%],further results
CN1CCC(COc2cnc(-c3cccc(Cn4nc(-c5cccc(C#N)c5)ccc4=O)c3)nc2)CC1 (1 nM),110,96.4,104,83.7,90.5,98.4,102,86.7,98.7,99.6,101,89.6,77.3,100,110,92.5,77.4,93.2,112,91.3,normalised response (SK-BR-3 [20]): 71%; normalised response (BT-474 [22]): 101%; normalised response (CAL-51 [23]): 127%; normalised response (Hs578T [24]): 96.7%; normalised response (MCF-10A): 93.9%; normalised response (CAL-120 [25]): 99.1%; normalised response (HCC1937 [26]): 103%; normalised response (MDA-MB-436 [27]): 91.4%; normalised response (CAL-85-1 [28]): 90.4%; normalised response (MFM-223 [29]): 93.6%; normalised response (CAL-148 [30]): 97.8%; normalised response (MDA-MB-231 [31]): 95.1%; normalised response (DU-4475 [32]): 100%; normalised response (HCC1143 [33]): 102%; normalised response (MDA-MB-468 [34]): 92.3%; normalised response (HDQ-P1 [35]): 95.3%; normalised response (BT-549 [36]): 93.5%
CN1CCC(COc2cnc(-c3cccc(Cn4nc(-c5cccc(C#N)c5)ccc4=O)c3)nc2)CC1 (10000 nM),,,,,,,,,,,,,,,,,,,,,normalised viability (MDA-MB-453 [37]): 3.23%; normalised viability (CAL-51 [38]): 6.25%; normalised viability (CAL-85-1 [39]): 6.29%; normalised viability (CAL-148 [40]): 25.8%; normalised viability (DU-4475 [41]): 2.2%; normalised viability (HDQ-P1 [42]): 4.94%
CN(C)C/C=C/C(=O)Nc1cc2c(Nc3ccc(F)c(Cl)c3)ncnc2cc1O[C@H]1CCOC1 [Afatinib] (1 nM),84.5,89.2,101,85.9,109,102,69.7,85.4,88.4,82,93.2,106,92.4,96.4,83.8,107,74.3,111,104,112,normalised response (SK-BR-3 [20]): 98.9%; normalised response (BT-474 [22]): 97.5%; normalised response (CAL-51 [23]): 116%; normalised response (Hs578T [24]): 96.5%; normalised response (MCF-10A): 92.7%; normalised response (CAL-120 [25]): 94.4%; normalised response (HCC1937 [26]): 97.2%; normalised response (MDA-MB-436 [27]): 105%; normalised response (CAL-85-1 [28]): 108%; normalised response (MFM-223 [29]): 97.8%; normalised response (CAL-148 [30]): 90.3%; normalised response (MDA-MB-231 [31]): 97.7%; normalised response (DU-4475 [32]): 109%; normalised response (HCC1143 [33]): 106%; normalised response (MDA-MB-468 [34]): 109%; normalised response (HDQ-P1 [35]): 98.4%; normalised response (BT-549 [36]): 96.9%
CN(C)C/C=C/C(=O)Nc1cc2c(Nc3ccc(F)c(Cl)c3)ncnc2cc1O[C@H]1CCOC1 [Afatinib] (10000 nM),,,,,,,,,,,,,,,,,,,,,normalised viability (MDA-MB-453 [37]): 14.4%; normalised viability (CAL-51 [38]): 50.6%; normalised viability (CAL-85-1 [39]): 13.6%; normalised viability (CAL-148 [40]): 40.7%; normalised viability (DU-4475 [41]): 67.8%; normalised viability (HDQ-P1 [42]): 4.6%
CN1CC[C@H](c2c(O)cc(O)c3c(=O)cc(-c4ccccc4Cl)oc23)[C@H](O)C1 [Alvocidib] (1 nM),99.6,97.4,95.8,92.3,102,73.7,75,96.4,94.3,83.5,88.3,104,98.1,101,78.5,113,79.7,104,94.2,115,normalised response (SK-BR-3 [20]): 112%; normalised response (BT-474 [22]): 92.2%; normalised response (CAL-51 [23]): 80.2%; normalised response (Hs578T [24]): 98.1%; normalised response (MCF-10A): 95.2%; normalised response (CAL-120 [25]): 102%; normalised response (HCC1937 [26]): 103%; normalised response (MDA-MB-436 [27]): 97.9%; normalised response (CAL-85-1 [28]): 110%; normalised response (MFM-223 [29]): 98.2%; normalised response (CAL-148 [30]): 104%; normalised response (MDA-MB-231 [31]): 103%; normalised response (DU-4475 [32]): 104%; normalised response (HCC1143 [33]): 96.5%; normalised response (MDA-MB-468 [34]): 106%; normalised response (HDQ-P1 [35]): 94.9%; normalised response (BT-549 [36]): 106%
COc1cc(Nc2ncc3c(n2)-c2ccc(Cl)cc2C(c2c(F)cccc2OC)=NC3)ccc1C(=O)O [MLN8237] (1 nM),114,103,93.8,109,99.7,99.4,92.1,101,119,95.7,88.5,102,109,101,96.3,105,88.2,115,,,
COc1cc(Nc2ncc3c(n2)-c2ccc(Cl)cc2C(c2c(F)cccc2OC)=NC3)ccc1C(=O)O [MLN8237] (10000 nM),,,,,,,,,,,,,,,,,,,,,normalised viability (MDA-MB-453 [37]): 44.8%; normalised viability (CAL-51 [38]): 18.8%; normalised viability (CAL-85-1 [39]): 56.3%; normalised viability (CAL-148 [40]): 26.2%; normalised viability (DU-4475 [41]): 21.9%; normalised viability (HDQ-P1 [42]): 40.9%
CO[C@H]1C[C@@H]2CC[C@@H](C)[C@@](O)(O2)C(=O)C(=O)N2CCCC[C@H]2C(=O)O[C@H]([C@H](C)C[C@@H]2CC[C@@H](OC(=O)C(C)(CO)CO)[C@H](OC)C2)CC(=O)[C@H](C)/C=C(\C)[C@@H](O)[C@@H](OC)C(=O)[C@H](C)C[C@H](C)/C=C/C=C/C=C/1C [Temsirolimus] (0.1 nM),99.8,92.6,88.1,95,98.3,86.6,86.7,55.3,92.4,79.7,77.8,96.1,83.6,99.3,94.1,93.5,105,92.8,89.3,104,normalised response (BT-474 [22]): 104%; normalised response (CAL-51 [23]): 106%; normalised response (Hs578T [24]): 88.2%; normalised response (MCF-10A): 104%; normalised response (CAL-120 [25]): 97.5%; normalised response (HCC1937 [26]): 91.1%; normalised response (MDA-MB-436 [27]): 103%; normalised response (CAL-85-1 [28]): 100%; normalised response (MFM-223 [29]): 103%; normalised response (CAL-148 [30]): 99.7%; normalised response (MDA-MB-231 [31]): 101%; normalised response (DU-4475 [32]): 104%; normalised response (HCC1143 [33]): 102%; normalised response (MDA-MB-468 [34]): 88.6%; normalised response (HDQ-P1 [35]): 101%; normalised response (BT-549 [36]): 86.6%
CO[C@H]1C[C@@H]2CC[C@@H](C)[C@@](O)(O2)C(=O)C(=O)N2CCCC[C@H]2C(=O)O[C@H]([C@H](C)C[C@@H]2CC[C@@H](OC(=O)C(C)(CO)CO)[C@H](OC)C2)CC(=O)[C@H](C)/C=C(\C)[C@@H](O)[C@@H](OC)C(=O)[C@H](C)C[C@H](C)/C=C/C=C/C=C/1C [Temsirolimus] (1000 nM),,,,,,,,,,,,,,,,,,,,,normalised viability (MDA-MB-453 [37]): 22.8%; normalised viability (CAL-51 [38]): 32.6%; normalised viability (CAL-85-1 [39]): 57.7%; normalised viability (CAL-148 [40]): 36.1%; normalised viability (DU-4475 [41]): 49.6%; normalised viability (HDQ-P1 [42]): 80.6%
